Entries after “also recorded” stand apart in the source; their conditions may differ.
Assays:
[1] = system: anti-GBM nephrotoxic serum-induced crescentic glomerulonephritis (RPGN) in mice; assay: Assessment of ascitis, renal function and albuminuria in accelerated anti-GBM crescentic glomerulonephritis; type: in vivo, mouse
Description: Assessment of […], renal function and albuminuria: […] Stage 2 to 4 were associated with clinically evident […] weight gain before sacrifice. Serum and urinary creatinine, and blood urea nitrogen (BUN) were quantified spectrophotometrically using a colorimetric method. Urinary albumin excretion was measured using a specific ELISA assay for quantitative determination of albumin inmouse urine (CellTrend GmbH).

[2] = system: anti-GBM nephrotoxic serum-induced crescentic glomerulonephritis (RPGN) in mice; assay: Histopathology and immunohistochemistry (crescentic glomeruli, CD3 positive cells) in accelerated anti-GBM crescentic glomerulonephritis; type: in vivo, mouse
[3] = system: anti-GBM nephrotoxic serum-induced crescentic glomerulonephritis (RPGN) in mice; assay: Survival in accelerated anti-GBM crescentic glomerulonephritis; details: AG1478-treated HB-EGF(+/+) mice
Description: Briefly, WT and HB-EGF−/− mice received subcutaneous injection with 200 μg normal sheep IgG (100 μl in each flank of normal sheep IgG (Sigma) diluted to 1 mg/ml in a solution of 50% freund complete adjuvent and 50% saline). Six days later (day 1), glomerulonephritis (GN) was induced by intravenous injection of 50 μl sheep anti-glomerular basement membrane (GBM) serum diluted to 7 mg/ml in saline. Serum injection was repeated twice (days 2 and 3), with serum dilution increased to 70 mg/ml. On days 0, 1, 2, 3, 5 and 7, mice received intraperitoneal injection of either AG1478 (LC Laboratories), a pharmacological inhibitor of EGFR tyrosine kinase activity (30 mg.kg-1.day-1 in 100 μl of a saline solution with 1% carboxymethylcellulose (CMC) and 10% DMSO), or 100 μl of saline solution with 1% CMC and 10% DMSO as control. On day 8, mice were sacrified after body weight measurement and 12 hours urines collection with metabolic cages. […] On day 14, mice were sacrified. Blood was obtained from mice by aortic catheterization. Kidneys from each mouse were processed for immunohistochemistry, protein and mRNA analysis, and the remaining half-kidney fixed in 10% neutral-buffered formalin for histological study.

[4] = target: T1, EGFR (Mus musculus, UniProt Q01279); assay: Phosphorylation of EGFR in renal cortex/glomeruli (western blot, immunofluorescence) during experimental RPGN; type: in vivo
T1 construct: Proteins were extracted from kidneys using a lysis buffer; from tissue; host or cells: mouse kidney (renal cortex, glomeruli); wild type and HB-EGF-/- mice on mixed C57BL/6J x 129 background
T1 sequence (Q01279 25-1210): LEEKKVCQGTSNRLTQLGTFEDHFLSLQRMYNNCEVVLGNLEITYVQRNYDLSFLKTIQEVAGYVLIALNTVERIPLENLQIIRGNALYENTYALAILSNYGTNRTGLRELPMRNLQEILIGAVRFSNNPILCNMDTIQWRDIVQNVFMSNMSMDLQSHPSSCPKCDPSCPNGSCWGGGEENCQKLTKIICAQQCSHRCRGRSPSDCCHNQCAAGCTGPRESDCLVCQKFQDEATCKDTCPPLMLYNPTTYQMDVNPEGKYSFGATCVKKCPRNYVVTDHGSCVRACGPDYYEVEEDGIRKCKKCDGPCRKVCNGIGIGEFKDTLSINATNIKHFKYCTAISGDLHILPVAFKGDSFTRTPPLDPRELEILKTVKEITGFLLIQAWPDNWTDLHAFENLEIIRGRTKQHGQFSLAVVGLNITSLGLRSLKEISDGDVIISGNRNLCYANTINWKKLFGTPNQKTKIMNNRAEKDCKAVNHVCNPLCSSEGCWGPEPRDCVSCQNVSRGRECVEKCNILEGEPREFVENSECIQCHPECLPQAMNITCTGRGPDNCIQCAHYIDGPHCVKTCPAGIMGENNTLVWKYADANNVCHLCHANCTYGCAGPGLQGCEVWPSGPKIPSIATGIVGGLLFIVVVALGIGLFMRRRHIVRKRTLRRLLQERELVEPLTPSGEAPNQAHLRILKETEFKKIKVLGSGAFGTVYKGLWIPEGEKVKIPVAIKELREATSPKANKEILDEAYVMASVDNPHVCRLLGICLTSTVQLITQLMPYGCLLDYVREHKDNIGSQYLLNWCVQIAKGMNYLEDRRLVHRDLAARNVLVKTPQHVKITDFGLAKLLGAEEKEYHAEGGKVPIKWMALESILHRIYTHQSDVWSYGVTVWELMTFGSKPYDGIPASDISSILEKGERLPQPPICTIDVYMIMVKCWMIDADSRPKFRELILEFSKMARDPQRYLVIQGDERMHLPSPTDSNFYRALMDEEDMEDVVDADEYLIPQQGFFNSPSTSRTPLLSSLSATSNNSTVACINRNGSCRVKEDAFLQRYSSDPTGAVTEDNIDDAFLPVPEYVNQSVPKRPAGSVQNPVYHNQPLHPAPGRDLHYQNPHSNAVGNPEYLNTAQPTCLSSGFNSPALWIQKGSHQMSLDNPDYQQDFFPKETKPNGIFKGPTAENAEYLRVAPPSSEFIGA
Description: On day 14, mice were sacrified.
For immunofluorescence in mouse tissues, cryostat sections of 4 μm were immediately fixed in acetone, washed in PBS and then incubated with antibodies in a humid incubator. Deposits of mouse IgG in kidney were evaluated using FITC rat anti-mouse IgG (FI2000, Vector) (1:100 dilution, incubation for 1 hour at room temperature).
Western blot analysis: Proteins were extracted from kidneys using a lysis buffer (Phosphosafe extraction buffer, Novagen) and quantified according to Bradford's method. […] Immunoblotting was performed using the rabbit anti phospho-EGFR (Cell Signaling) diluted 1:1,000 or a rabbit anti-EGFR diluted 1:5,000 (Cell Signaling) as control for lane loading. Then, horseradish peroxidase-linked donkey secondary antibody (Amersham Pharmacia Biotech) diluted 1:2,000 was added and revelation was subsequently made using ECL plus kit (Amersham Pharmacia Biotech) on autoradiography film, followed by densitometric analysis.

[5] = day 14, erlotinib preventive (d0-14) or curative (d4-14) protocol
[6] = day 8, AG1478 30 mg/kg i.p., wild type mice, 30 mg/kg

Row | SMILES | blood urea nitrogen ([1]; day 14, erlotinib 100 mg/kg/day per gavage, preventive, n=9) [mmol/L] | renal failure / blood urea nitrogen levels (in words) [1, 5] | necrotic glomerular lesions, cellular crescents, tubular proteinaceous casts and diffuse CD3 positive cells infiltrates ([2]; day 14, delayed erlotinib from day 4 to day 14, Masson trichrome staining) | proportion of crescentic glomeruli ([2]; day 14, erlotinib 100 mg/kg/day per gavage, preventive (12 hours prior to anti-GBM serum), n=9) [° A)] | development of glomerular injury (in words) [2, 5] | death within 8 days of RPGN [3] | incidence and severity of asciitis ([1]; day 8, AG1478 30 mg/kg i.p., vs vehicle) | albumin urinary leakage, renal function / renal failure (in words) ([1]; day 8, AG1478 30 mg/kg i.p., 30 mg/kg) | albuminuria ([1]; day 8, AG1478 30 mg/kg/day i.p., n=6) [g/mmol creatinine] | BUN ([1]; day 8, AG1478 30 mg/kg/day i.p., n=6, in mM) | crescent formation / renal lesions (in words) [2, 6] | periglomerular and interstitial CD3+ cell infiltrates [2, 6] | % of crescentic glomeruli ([2]; day 8 after induction of RPGN, AG1478 30 mg/kg/day i.p., n=6) [%] | phosphorylation of EGFR (in words) ([4]; AG1478 i.p. in wild type mice vs vehicle only, day 8) | pEGFR signal in glomeruli (immunofluorescence) ([4]; day 8 post NTS, AG1478 30 mg/kg/day i.p.) | phosphorylation of EGFR blunted (fold) ([4]; renal cortex, day 8 post NTS, AG1478 30 mg/kg/day i.p. vs vehicle) | pEFGR/EGFR ratio ([4]; renal cortex, western blot, day 8 post NTS, AG1478 30 mg/kg/day i.p., wild type mice, n=6)
1 | C#Cc1cccc(Nc2ncnc3cc(OCCOC)c(OCCOC)cc23)c1.Cl [erlotinib, [6,7-bis(2-methoxyethoxy)-4-quinazolin-4-yl]-(3-ethynylphenyl)amine] | 3.8 ± 0.4 | prevented renal failure with normal blood urea nitrogen levels | blunted | 25.0±6.9 | blunted or stopped the development of glomerular injury |  |  |  |  |  |  |  |  |  |  |  | 
2 | COc1cc2ncnc(Nc3cccc(Cl)c3)c2cc1OC [AG1478, 4-(3-Chloroanilino)-6,7-dimethoxyquinazoline] |  |  |  |  |  | no AG1478-treated HB-EGF(+/+) mice died | lower incidence and severity of asciitis | prevents albumin urinary leakage and renal failure; also recorded: renal function was preserved | 8.9±2.3 | 6.39±2.0 | reduces crescent formation; also recorded: dramatically reduced the development of renal lesions | reduces crescent formation and T cells infiltrates; also recorded: absent; also recorded: more effective in preventing cell infiltrate than HB-EGF deficiency | 6.8±1.7 | prevented the phosphorylation of EGFR | faint or no signal was detectable | ~9 | 11 % of vehicle only-treated mice

Reference: patent publication US8198266B2, “Use of an EGFR antagonist for the treatment of glomerolonephritis” (INSERM (Institut National de la Sante et de la Recherche …, priority 2006, dated 2012)
